Measured values as given in publication PMC12014616, “HPLC-UV method development and validation for anticancer drug sorafenib and the co-prescribed drug dexamethasone: application to pharmacokinetic evaluation of sorafenib nanoformulations” (Frontiers in Pharmacology, 2025).

Test: Stability of sorafenib-spiked plasma samples at different storage conditions
Format: physicochemical
Procedure: The plasma was separated from the blood by centrifugation at 8,000 rpm for 10 min at […]. The plasma (200 µL) was spiked with sorafenib, dexamethasone, and IS, the protein was precipitated with acetonitrile, and the extraction of the analytes was carried out with ACN, MeOH, and DCM. The following plan was applied to obtain the sample (Figure 2), and a sample (20 µL) was applied for analysis.
Linearity was confirmed through least squares regression, while sensitivity was measured on the basis of the S/N ratio of HPLC software. The S/N ratios are 3 and 10 for LOD and LOQ, respectively. Similar robustness was tested through planned changes in parameters while stability studies were performed at different storage conditions (‒20°C, 4°C, and 25°C) for a month using Equation 3. % Stability=St/So X 100, (3) where St indicates stability at time t, and S0 indicates stability at time 0.

In the case of `CNC(=O)c1cc(Oc2ccc(NC(=O)Nc3ccc(Cl)c(C(F)(F)F)c3)cc2)ccn1` [sorafenib, Sorafenib], the “% Recovery (Mean ± SD)” value (4°C, 6 hours, 250 ng/mL) was 98.13 ± 0.19; 0.19%, the “% Recovery (Mean ± SD)” value (4°C, 6 hours, 500 ng/mL) was 98.29 ± 0.65; 0.66% and the “% Recovery (Mean ± SD)” value (4°C, 6 hours, 1,000 ng/mL) was 98.91 ± 0.91; 0.92%. The “% Recovery (Mean ± SD)” value (4°C, 24 hours, 250 ng/mL) was 98.11 ± 0.38; 0.77%, the “% Recovery (Mean ± SD)” value (4°C, 24 hours, 500 ng/mL) was 98.30 ± 0.67; 0.68% and the “% Recovery (Mean ± SD)” value (4°C, 24 hours, 1,000 ng/mL) was 98.05 ± 0.68; 0.69%. For the same molecule, the “% Recovery (Mean ± SD)” value (4°C, 72 hours, 250 ng/mL) was 97.36 ± 0.85; 0.87%, the “% Recovery (Mean ± SD)” value (4°C, 72 hours, 500 ng/mL) was 96.99 ± 0.32; 0.33% and the “% Recovery (Mean ± SD)” value (4°C, 72 hours, 1,000 ng/mL) was 96.93 ± 0.48; 0.50%. The “% Recovery (Mean ± SD)” value (25°C, 0 hours, 250 ng/mL) was 98.15 ± 0.44; 0.45%, the “% Recovery (Mean ± SD)” value (25°C, 0 hours, 500 ng/mL) was 98.25 ± 0.55; 0.56% and the “% Recovery (Mean ± SD)” value (25°C, 0 hours, 1,000 ng/mL) was 98.55 ± 0.19; 0.19%. For the same molecule, the “% Recovery (Mean ± SD)” value (25°C, 6 hours, 250 ng/mL) was 97.45 ± 0.34; 0.35%, the “% Recovery (Mean ± SD)” value (25°C, 6 hours, 500 ng/mL) was 97.39 ± 0.12; 0.12% and the “% Recovery (Mean ± SD)” value (25°C, 6 hours, 1,000 ng/mL) was 98.05 ± 0.15; 0.15%. The “% Recovery (Mean ± SD)” value (25°C, 24 hours, 250 ng/mL) was 95.51 ± 0.53; 0.55%, the “% Recovery (Mean ± SD)” value (25°C, 24 hours, 500 ng/mL) was 96.05 ± 0.41; 0.43% and the “% Recovery (Mean ± SD)” value (25°C, 24 hours, 1,000 ng/mL) was 97.55 ± 0.26; 0.27%. For the same molecule, the “% Recovery (Mean ± SD)” value (25°C, 72 hours, 250 ng/mL) was 85.90 ± 0.50; 0.58%, the “% Recovery (Mean ± SD)” value (25°C, 72 hours, 500 ng/mL) was 84.95 ± 0.34; 0.40% and the “% Recovery (Mean ± SD)” value (25°C, 72 hours, 1,000 ng/mL) was 88.25 ± 0.74; 0.84%. The “% Recovery (Mean ± SD)” value (freeze and thaw 3x, 250 ng/mL) was 96.41 ± 0.17; 0.18%, the “% Recovery (Mean ± SD)” value (freeze and thaw 3x, 500 ng/mL) was 97.05 ± 0.22; 0.23% and the “% Recovery (Mean ± SD)” value (freeze and thaw 3x, 1,000 ng/mL) was 98.00 ± 0.87; 0.89%.
